Literature values as cited in publication PMC11020070, “Discovery of Protease-Activated Receptor 4 (PAR4)-Tethered Ligand Antagonists Using Ultralarge Virtual Screening” (ACS Pharmacology & Translational Science, 2024).

Tests used:
PAR1 = target: T1, PAR1 (Homo sapiens, UniProt P25116); set-up: method as in PMID 22443427, PMID 22077816; details: cited from earlier work
T1 construct: endogenous in cells; host or cells: platelets
T1 sequence (P25116 22-425): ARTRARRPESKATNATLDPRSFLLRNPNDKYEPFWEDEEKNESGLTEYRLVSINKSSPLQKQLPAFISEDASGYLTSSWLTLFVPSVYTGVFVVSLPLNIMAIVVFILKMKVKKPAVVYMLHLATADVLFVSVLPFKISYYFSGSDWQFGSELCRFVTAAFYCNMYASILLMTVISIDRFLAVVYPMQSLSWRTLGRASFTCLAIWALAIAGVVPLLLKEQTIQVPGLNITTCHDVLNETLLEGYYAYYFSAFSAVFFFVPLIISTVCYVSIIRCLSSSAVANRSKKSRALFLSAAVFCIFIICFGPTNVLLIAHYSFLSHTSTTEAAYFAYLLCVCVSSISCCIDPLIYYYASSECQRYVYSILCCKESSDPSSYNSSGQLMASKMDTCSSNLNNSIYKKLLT

PAR4 [1] = tested on: PAR4; set-up: method as in PMID 28053157; details: cited from earlier work
[2] = set-up: method as in PMID 35758258, PMID 23222541; details: phase I, healthy participants; cited from earlier work
PAR4 [3] = tested on: PAR4; set-up: method as in PMID 27777004; details: read-out: IC50 against γ-thrombin; cited from earlier work

## CCOC(=O)N[C@@H]1CC[C@@H]2[C@@H](C1)C[C@H]1C(=O)O[C@H](C)[C@H]1[C@H]2/C=C/c1ccc(-c2cccc(F)c2)cn1 [vorapaxar]
PAR1; added to standard care, acute coronary syndrome, phase 3
  primary efficacy outcome: failed to meet its primary efficacy outcome
PAR1; phase 3, especially intracranial hemorrhage
  bleeding: excess of major bleeding

## COc1cc(OCc2nc(N3CCOCC3)sc2C)c2cc(-c3cn4nc(OC)sc4n3)oc2c1 [BMS-986120]
PAR4 [1]; cynomolgus monkey arterial thrombosis model
  antithrombotic activity: potent and highly efficacious antithrombotic activity
PAR4 [1]; nonhuman primate model
  bleeding liability: low bleeding liability
[2]
  safety and tolerability: safe and well tolerated

## COc1nn2cc(-c3c(CO)n(Cc4ccccc4Cl)c4ccc(OC(F)(F)F)cc34)nc2s1 [Compound 6]
PAR4 [3]
  IC50: 4.35 µM
